Where two headings read alike, the source gives them in different places.
Columns and labels:
TF-VIIa = target: T1, TF-VIIa (Homo sapiens, UniProt P08709); assay: TF-VIIa Assay; type: biochemical
T1 construct: 2nM recombinant human factor VIIa; purchased American Diagnostica, Greenwich CT; host or cells: soluble TF made in house in E. coli

Human factor Xa = Human factor Xa (Homo sapiens, UniProt P00742)
[1] = read-out: IC50 or % Inhibition TF-VIIa (30 µM); cells given as a plain number (IC50)
[2] = cells given as a plain number (IC50); read-out: IC50 or % Inhibition TF-VIIa (30 µM)

Chain of Human factor Xa (P00742 235-488 limits assumed): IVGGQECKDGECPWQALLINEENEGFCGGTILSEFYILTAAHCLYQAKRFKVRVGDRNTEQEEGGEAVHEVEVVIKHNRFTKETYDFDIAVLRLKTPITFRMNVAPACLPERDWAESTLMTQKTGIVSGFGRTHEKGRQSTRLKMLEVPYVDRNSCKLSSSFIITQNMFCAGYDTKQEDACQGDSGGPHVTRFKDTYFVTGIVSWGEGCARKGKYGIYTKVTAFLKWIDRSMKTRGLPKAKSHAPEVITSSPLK
Chain of Human factor Xa (P00742 41-179 limits assumed): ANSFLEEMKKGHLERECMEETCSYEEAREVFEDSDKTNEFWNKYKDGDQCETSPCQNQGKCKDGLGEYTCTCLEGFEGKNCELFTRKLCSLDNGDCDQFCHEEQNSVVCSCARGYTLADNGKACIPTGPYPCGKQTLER
T1 sequence (P08709 213-466 limits assumed): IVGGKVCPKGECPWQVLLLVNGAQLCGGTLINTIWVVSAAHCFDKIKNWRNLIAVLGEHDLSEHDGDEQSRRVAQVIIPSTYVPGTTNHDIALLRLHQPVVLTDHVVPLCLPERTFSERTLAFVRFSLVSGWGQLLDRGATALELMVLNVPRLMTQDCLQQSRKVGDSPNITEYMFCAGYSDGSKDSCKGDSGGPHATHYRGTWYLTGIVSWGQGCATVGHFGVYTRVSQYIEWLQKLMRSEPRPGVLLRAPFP
T1 sequence (P08709 61-212 limits assumed): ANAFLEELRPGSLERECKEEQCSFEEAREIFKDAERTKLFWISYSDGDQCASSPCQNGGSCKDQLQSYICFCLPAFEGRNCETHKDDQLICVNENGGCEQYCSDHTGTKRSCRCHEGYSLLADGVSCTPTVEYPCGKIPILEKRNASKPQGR
T1 sequence (P13726 33-251 partner limits assumed): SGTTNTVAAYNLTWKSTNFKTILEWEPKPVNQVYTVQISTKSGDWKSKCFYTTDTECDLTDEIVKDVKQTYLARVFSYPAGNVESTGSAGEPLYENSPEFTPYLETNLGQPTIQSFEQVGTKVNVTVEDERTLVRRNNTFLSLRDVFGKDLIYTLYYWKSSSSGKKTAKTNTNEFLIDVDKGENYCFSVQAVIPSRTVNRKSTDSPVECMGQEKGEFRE

SMILES	IC50 or % Inhibition Factor Xa (30 µM) (Human factor Xa)	IC50 (TF-VIIa; [1])	other results
O=C(Cn1c(-c2ccccc2)c(Cl)nc(NCCc2ccncc2)c1=O)NCCc1ccncc1 [Example E-0014]			% Inhibition TF-VIIa (100 µM) (TF-VIIa): 0%; % Inhibition Factor Xa (100 µM) (Human factor Xa): 0%
N=C(N)c1ccc(CNC(=O)Cn2c(-c3ccccc3)c(Cl)nc(NCCc3ccccn3)c2=O)cc1 [1512-47]	13%	3.5 µM	
O=C(Cn1c(-c2ccc3c(c2)OCO3)c(Cl)nc(NCCc2cccnc2)c1=O)NCCc1ccncc1 [Example E-0045]			% Inhibition TF-VIIa (100 µM) (TF-VIIa): 0%; % Inhibition Factor Xa (100 µM) (Human factor Xa): 0%
N=C(N)c1ccc(CNC(=O)Cn2c(-c3ccccc3)c(Cl)nc(NCc3cccc(OC(F)(F)F)c3)c2=O)cc1 [1512-40]	3%		IC50 or % Inhibition TF-VIIa (30 µM) (TF-VIIa): 40%
O=C(Cn1c(Cc2ccccc2)c(Cl)nc(NCc2ccccc2)c1=O)NCCc1ccncc1 [Example E-0057]			% Inhibition TF-VIIa (100 µM) (TF-VIIa): 0%; % Inhibition Factor Xa (100 µM) (Human factor Xa): 6%
N=C(N)c1ccc(CNC(=O)Cn2c(-c3ccc(Cl)cc3)c(Cl)nc(NCc3ccncc3)c2=O)cc1 [1471-19]	26%		IC50 or % Inhibition TF-VIIa (30 µM) (TF-VIIa): 33%
Cc1c(Cl)nc(NCCc2ccc(Cl)cc2)c(=O)n1CC(=O)NCCc1ccncc1 [Example E-0004]			% Inhibition TF-VIIa (100 µM) (TF-VIIa): 0%; % Inhibition Factor Xa (100 µM) (Human factor Xa): 0%
N=C(N)c1ccc(CNC(=O)Cn2c(-c3ccsc3)c(Cl)nc(NCCc3ccccc3)c2=O)cc1 [1517-13]	0%	0.6 µM	
O=C(Cn1c(-c2ccc3c(c2)OCO3)c(Cl)nc(NCCc2ccccc2)c1=O)NCCc1ccncc1 [Example E-0042]			% Inhibition TF-VIIa (100 µM) (TF-VIIa): 0%; % Inhibition Factor Xa (100 µM) (Human factor Xa): 0%
N=C(N)c1ccc(CNC(=O)Cn2c(-c3ccccc3)c(Cl)nc(NCc3cc(F)c(F)c(F)c3)c2=O)cc1 [1512-32]	5%	21.9 µM	
O=C(Cn1c(-c2ccc(-c3ccccc3)cc2)c(Cl)nc(NCCc2cccnc2)c1=O)NCCc1ccncc1 [Example E-0053]			% Inhibition TF-VIIa (100 µM) (TF-VIIa): 0%; % Inhibition Factor Xa (100 µM) (Human factor Xa): 0%
N=C(N)c1ccc(CNC(=O)Cn2c(-c3ccc4c(c3)OCO4)c(Cl)nc(NCCc3ccncc3)c2=O)cc1 [1471-45]	24%	13.2 µM	
COc1ccc(-c2c(Cl)nc(NCCc3ccncc3)c(=O)n2CC(=O)NCc2ccc(C(=N)N)cc2)cc1 [1471-37]	7%		IC50 or % Inhibition TF-VIIa (30 µM) (TF-VIIa): 39%
N=C(N)c1ccc(CNC(=O)Cn2c(-c3ccccc3)c(Cl)nc(NCc3cc(C(F)(F)F)cc(C(F)(F)F)c3)c2=O)cc1 [1507-40]	11%	5.7 µM	
N=C(N)c1ccc(CNC(=O)C(Cc2ccccc2)n2c(-c3ccccc3)c(Cl)nc(NC3CCC3)c2=O)cc1 (stereo not shown) [1517-08]	0%		IC50 or % Inhibition TF-VIIa (30 µM) (TF-VIIa): 43%
N=C(N)c1ccc(CNC(=O)Cn2c(-c3ccccc3)c(Cl)nc(NCC(c3ccccc3)c3ccccc3)c2=O)cc1 [1507-09]	13%	22.6 µM	
CN(C)CCNc1nc(Cl)c(-c2ccccc2)n(CC(=O)NCc2ccc(C(=N)N)cc2)c1=O [1512-15]	6%		IC50 (TF-VIIa; [2]): 20.9 µM
O=C(Cn1c(-c2ccc3c(c2)OCO3)c(Cl)nc(NCc2ccccc2)c1=O)NCCc1ccncc1 [Example E-0041]			% Inhibition TF-VIIa (100 µM) (TF-VIIa): 0%; % Inhibition Factor Xa (100 µM) (Human factor Xa): 0%
N=C(N)c1ccc(CNC(=O)Cn2c(-c3ccc(Cl)cc3)c(Cl)nc(NCCN3CCOCC3)c2=O)cc1 [1471-20]	34%		IC50 or % Inhibition TF-VIIa (30 µM) (TF-VIIa): 42%
N=C(N)c1ccc(CNC(=O)Cn2c(-c3ccccc3)c(Cl)nc(NC3CCc4ccccc43)c2=O)cc1 (stereo not shown) [1507-02]	9%	9.4 µM	
C[C@@H](C(=O)NCc1ccc(C(=N)N)cc1)n1c(-c2ccccc2)c(Cl)nc(NCc2ccccc2)c1=O [1517-03]	0%	9 µM	
N=C(N)c1ccc(CNC(=O)Cn2c(-c3ccccc3)c(Cl)nc(NCc3ccccc3Cl)c2=O)cc1 [1507-03]	21%	3.6 µM	
C[C@H](C(=O)NCc1ccc(C(=N)N)cc1)n1c(-c2ccccc2)c(Cl)nc(NCCc2ccccc2)c1=O [1517-17]	0%	1.8 µM	

SMILES	IC50 or % Inhibition Factor Xa (30 µM) (Human factor Xa)	IC50 (TF-VIIa; [1])	other results
O=C(Cn1c(-c2ccc3c(c2)OCO3)c(Cl)nc(NCCc2ccncc2)c1=O)NCCc1ccncc1 [Example E-0046]			% Inhibition TF-VIIa (100 µM) (TF-VIIa): 0%; % Inhibition Factor Xa (100 µM) (Human factor Xa): 0%
N=C(N)c1ccc(CNC(=O)Cn2c(-c3ccccc3)c(Cl)nc(NCc3cc(C(F)(F)F)ccc3F)c2=O)cc1 [1512-27]	3%	16.5 µM	
N=C(N)c1ccc(CNC(=O)Cn2c(-c3ccccc3)c(Cl)nc(NCc3ccc(C(F)(F)F)cc3F)c2=O)cc1 [1512-26]	5%	26.9 µM	
N=C(N)c1ccc(CNC(=O)Cn2c(-c3ccc4c(c3)OCO4)c(Cl)nc(NCCc3ccccc3)c2=O)cc1 [1471-47]	22%	12.6 µM	
Cc1c(Cl)nc(NCCc2cccc(Cl)c2)c(=O)n1CC(=O)NCc1ccc(C(=N)N)cc1 [1471-6]	14%	2.85 µM	
Cc1c(Cl)nc(NCCc2cccc(Cl)c2)c(=O)n1CC(=O)NCCc1ccncc1 [Example E-0003]			% Inhibition TF-VIIa (100 µM) (TF-VIIa): 0%; % Inhibition Factor Xa (100 µM) (Human factor Xa): 0%
N=C(N)c1ccc(CNC(=O)Cn2c(-c3ccccc3)c(Cl)nc(NCc3cc(F)cc(C(F)(F)F)c3)c2=O)cc1 [1512-29]	4%		IC50 or % Inhibition TF-VIIa (30 µM) (TF-VIIa): 47%
N=C(N)c1ccc(CNC(=O)Cn2c(-c3ccccc3)c(Cl)nc(NCC3COc4ccccc4O3)c2=O)cc1 (stereo not shown) [1512-01]	4%	18 µM	
CC1CCCC(Nc2nc(Cl)c(-c3ccccc3)n(CC(=O)NCc3ccc(C(=N)N)cc3)c2=O)C1C (stereo not shown) [1512-23]	6%	14.6 µM	
N=C(N)c1ccc(CNC(=O)Cn2c(-c3ccc4c(c3)OCO4)c(Cl)nc(NCc3ccccc3)c2=O)cc1 [1471-41]	34%	18.3 µM	
N=C(N)c1ccc(CNC(=O)Cn2c(-c3ccccc3)c(Cl)nc(NCCc3ccc(Cl)cc3)c2=O)cc1 [1471-10]	45%		IC50 (TF-VIIa; [2]): 0.6 µM
C[C@@H](C(=O)NCc1ccc(C(=N)N)cc1)n1c(-c2ccccc2)c(Cl)nc(NCCc2ccccc2)c1=O [1517-15]	0%	3.1 µM	
O=C(Cn1c(-c2ccc3c(c2)OCO3)c(Cl)nc(NCCN2CCOCC2)c1=O)NCCc1ccncc1 [Example E-0047]			% Inhibition TF-VIIa (100 µM) (TF-VIIa): 0%; % Inhibition Factor Xa (100 µM) (Human factor Xa): 0%
Cc1c(Cl)nc(NCCc2ccc(Cl)cc2)c(=O)n1CC(=O)NCc1ccc(C(=N)N)cc1 [1471-2]	10%	3.62 µM	
O=C(Cn1c(-c2ccccc2)c(Cl)nc(NCCc2cccnc2)c1=O)NCCc1ccncc1 [Example E-0013]			% Inhibition TF-VIIa (100 µM) (TF-VIIa): 0%; % Inhibition Factor Xa (100 µM) (Human factor Xa): 0%
C[C@@H](C(=O)NCc1ccc(C(=N)N)cc1)n1c(-c2ccccc2)c(Cl)nc(NC2CCC2)c1=O [1517-09]	0%	2.6 µM	
O=C(Cn1c(Cc2ccccc2)c(Cl)nc(NCCc2ccncc2)c1=O)NCCc1ccncc1 [Example E-0062]			% Inhibition TF-VIIa (100 µM) (TF-VIIa): 0%; % Inhibition Factor Xa (100 µM) (Human factor Xa): 0%
N=C(N)c1ccc(CNC(=O)Cn2c(-c3ccccc3)c(Cl)nc(NCCCCc3ccccc3)c2=O)cc1 [1507-43]	21%		IC50 (TF-VIIa; [2]): 4.1 µM
N=C(N)c1ccc(CNC(=O)Cn2c(-c3ccccc3)c(Cl)nc(NCCc3cccc(C(F)(F)F)c3)c2=O)cc1 [1512-41]	4%		IC50 (TF-VIIa; [2]): 30 µM
O=C(Cn1c(-c2ccc3c(c2)OCO3)c(Cl)nc(NCCc2ccc(Cl)cc2)c1=O)NCCc1ccncc1 [Example E-0044]			% Inhibition TF-VIIa (100 µM) (TF-VIIa): 0%; % Inhibition Factor Xa (100 µM) (Human factor Xa): 0%
N=C(N)c1ccc(CNC(=O)Cn2c(-c3ccc(-c4ccccc4)cc3)c(Cl)nc(NCc3ccncc3)c2=O)cc1 [1471-67]	16%		IC50 or % Inhibition TF-VIIa (30 µM) (TF-VIIa): 12%
N=C(N)c1ccc(CNC(=O)Cn2c(-c3ccccc3)c(Cl)nc(NCc3cc(F)cc(F)c3)c2=O)cc1 [1512-39]	4%		IC50 (TF-VIIa; [2]): 6 µM

Second part, led by results:

IC50 or % Inhibition Factor Xa (30 µM) (Human factor Xa)	IC50 (TF-VIIa; [1])	SMILES	other results
0%		N=C(N)c1ccc(CNC(=O)Cn2c(-c3ccccc3)c(Cl)nc(NCC3CC3)c2=O)cc1 [1517-43]	IC50 or % Inhibition TF-VIIa (30 µM) (TF-VIIa): 25%
0%	0.9 µM	N=C(N)c1ccc(CNC(=O)Cn2c(-c3ccsc3)c(Cl)nc(NCCc3cccc(Cl)c3)c2=O)cc1 [1517-19]	
0%		N=C(N)c1ccc(CNC(=O)Cn2c(-c3ccccc3)c(Cl)nc(NC3CCCCC3)c2=O)cc1 [1517-25]	IC50 (TF-VIIa; [2]): 1.4 µM
0%	1.2 µM	CCCCCNc1nc(Cl)c(-c2ccccc2)n(CC(=O)NCc2ccc(C(=N)N)cc2)c1=O [1517-48]	
0%	0.5 µM	CC(C)Nc1nc(Cl)c(-c2cccc(N)c2)n(CC(=O)NCc2ccc(C(=N)N)c(F)c2)c1=O [Example 42]	
0%	2.3 µM	C[C@H](C(=O)NCc1ccc(C(=N)N)cc1)n1c(-c2ccccc2)c(Cl)nc(NCCc2cccc(Cl)c2)c1=O [1517-23]	
14%		CC(C)CNc1nc(Cl)c(-c2cccc(N)c2)n(CC(=O)NCc2ccc(C(=N)N)cc2F)c1=O [1543-38]	IC50 (TF-VIIa; read-out: IC50 or % Inhibition TF-VIIa (30 µM); cells without % sign: IC50): 0.09 µM
0%		N=C(N)c1ccc(CNC(=O)Cn2c(-c3cccc(N)c3)c(Cl)nc(NC3CCC3)c2=O)cc1F [Example 40]	IC50 (TF-VIIa; [2]): 0.06 µM

Source: patent EP1202975B1, “SUBSTITUTED POLYCYCLIC ARYL AND HETEROARYL PYRAZINONES USEFUL FOR SELECTIVE INHIBITION OF THE COAGULATION CASCADE” (Pharmacia Corporation, priority 1999, dated 2000)
